Data: US20220227813A1, “Ras INHIBITORY PEPTIDE” (ICHIMARU PHARCOS CO., LTD., priority 2019, published 2022)
Positions of bridges follow the written chain, without caps; N, C: chain ends. Non-standard residues stand in square brackets, D forms with d. Phe(4-F) = N[C@@H](Cc1ccc(F)cc1)C(=O)O; Aoc(2) = CCCCCC[C@H](N)C(=O)O; NMeV = CN[C@H](C(=O)O)C(C)C; Nle = CCCC[C@H](N)C(=O)O; βAla = NCCC(=O)O

Columns and labels:
[1] = tested on: negative control protein
[2] = resistance to protease degradation in rat plasma (RP-HPLC); type: in vitro ADME; details: 37° C., 24 hours compared to 0 hours
Protocol: For 1 μL of each 10 mM peptide, 20 μL of rat plasma was added and incubated at 37° C. for an arbitrary time (0 or 24 hours). […] To remove plasma proteins, the mixture was centrifuged at a speed of 15,000 rpm under 4° C. for 10 min. The supernatant was collected and the remaining amount of peptide was detected by RP-HPLC (solution A: 0.1% TFA/water, solution B: 0.1% TFA/acetonitrile, 20 min gradient of 80% solution A→10% solution A at 1 mL/min) using a SunFire C18 column (5 μm, 4.6×^150 mm).

[3] = molecular target: wild-type H-Ras (Homo sapiens, UniProt P01112); experiment: peptide concentration-dependent binding of biotin-modified peptide (ELISA)
Excerpt: (§1) The ELISA method is briefly described below.

[4] = molecular target: wild-type N-Ras (Homo sapiens, UniProt P01111); experiment: as above
Excerpt: as §1

[5] = molecular target: wild-type K-Ras (Homo sapiens, UniProt P01116); experiment: as above
Excerpt: as §1

[6] = molecular target: K-Ras(G12V) (Homo sapiens, UniProt P01116, G12V); experiment: as above
Excerpt: as §1

[7] = molecular target: H-Ras (G12V) (Homo sapiens, UniProt P01112, G12V); experiment: as above
Excerpt: as §1

[8] = molecular target: K-Ras(G13D) (Homo sapiens, UniProt P01116, G13D); experiment: as above
Excerpt: as §1

[9] = molecular target: H-Ras (Q61L) (Homo sapiens, UniProt P01112, Q61L); experiment: as above
Excerpt: as §1

[10] = molecular target: N-Ras (Q61K) (Homo sapiens, UniProt P01111, Q61K); experiment: as above
Excerpt: as §1

[11] = molecular target: K-Ras(G12C) (Homo sapiens, UniProt P01116, G12C); experiment: as above
Excerpt: as §1

[12] = molecular target: K-Ras(G12D) (Homo sapiens, UniProt P01116, G12D); experiment: as above
[13] = molecular target: T1, K-Ras(G12D) (UniProt P01116-2 1-188, limits assumed); experiment: competitive ELISA, K-Ras(G12D) coated, competitor Biotin-KRpep-2d 100 nM; IC50 relative to KRpep-2d = 1; N=4
T1 construct: Bought recombinant protein coated on ELISA plates in buffer with 10 mM MgCl2 and 10 uM GDP; also called recombinant protein of Ras

[14] = bond between positions 4 and 11 cleaved, monocyclic

Biotin-Arg-Arg-Arg-Arg-c(Cys-Pro-Leu-Tyr-Ile-Ser-Tyr-Asp-Pro-Val-Cys)-Arg-Arg-Arg-Arg-NH2 [Biotin-KRpep-2d, reference compound]
binding activity to negative control protein [1]: did not show binding activity

c[βAla-Pro-Nle-c(Cys-Aoc-Ser-4fF-Asp-Pro-^mVal-^DCys)] (cyclo([βAla]P[Nle]C[Aoc(2)]S[Phe(4-F)]DP[NMeV][dC]); linker 4-11 via 1,2‑diiodoethane) [Seq-20]
peptide-derived RP-HPLC peak remaining after incubation in rat plasma [2]: remained almost the same

c[βAla-Pro-Nle-c(^DCys-Aoc-Ser-^m4fF-Asp-Lys(εNH-Biotin)-^mVal-^DCys)] [Biotin-BC-1]
binding activity to negative control protein [1]: no binding activity
peptide concentration-dependent binding [3]: concentration-dependent binding
binding activity under the reducing condition [3, 14]: greatly weakened
peptide concentration-dependent binding [4]: concentration-dependent binding
binding activity under the reducing condition [4, 14]: greatly weakened
peptide concentration-dependent binding [5]: concentration-dependent binding
binding activity under the reducing condition [5, 14]: greatly weakened
peptide concentration-dependent binding [6]: concentration-dependent binding
binding activity under the reducing condition [6, 14]: greatly weakened
peptide concentration-dependent binding [7]: concentration-dependent binding
binding activity under the reducing condition [7, 14]: greatly weakened
peptide concentration-dependent binding [8]: concentration-dependent binding
binding activity under the reducing condition [8, 14]: greatly weakened
peptide concentration-dependent binding [9]: concentration-dependent binding
binding activity under the reducing condition [9, 14]: greatly weakened
peptide concentration-dependent binding [10]: concentration-dependent binding
binding activity under the reducing condition [10, 14]: greatly weakened
peptide concentration-dependent binding [11]: concentration-dependent binding
binding activity under the reducing condition [11, 14]: greatly weakened
peptide concentration-dependent binding ([12]; K-Ras(G12D) coated plate, SA-HRP detection): concentration-dependent binding
binding activity under the reducing condition ([12]; K-Ras(G12D), bond between positions 4 and 11 cleaved, monocyclic): greatly weakened

B1: 2d-8-Trp (peptide)
peptide: RRRRCPLWISYDPVCRRRR
HELM: PEPTIDE1{[ac].R.R.R.R.C.P.L.W.I.S.Y.D.P.V.C.R.R.R.R.[am]}$PEPTIDE1,PEPTIDE1,6:R3-16:R3$$$V2.0
SMILES: CC[C@H](C)[C@@H]1NC(=O)[C@H](Cc2c[nH]c3ccccc23)NC(=O)[C@H](CC(C)C)NC(=O)[C@@H]2CCCN2C(=O)[C@@H](NC(=O)[C@H](CCCNC(=N)N)NC(=O)[C@H](CCCNC(=N)N)NC(=O)[C@H](CCCNC(=N)N)NC(=O)[C@H](CCCNC(=N)N)NC(C)=O)CSSC[C@@H](C(=O)N[C@@H](CCCNC(=N)N)C(=O)N[C@@H](CCCNC(=N)N)C(=O)N[C@@H](CCCNC(=N)N)C(=O)N[C@@H](CCCNC(=N)N)C(N)=O)NC(=O)[C@H](C(C)C)NC(=O)[C@@H]2CCCN2C(=O)[C@H](CC(=O)O)NC(=O)[C@H](Cc2ccc(O)cc2)NC(=O)[C@H](CO)NC1=O
Binding intensity (fold vs KRpep-2d) [13]: 2.6 fold

B2: 2d-10-Thr (peptide)
peptide: RRRRCPLYITYDPVCRRRR
HELM: PEPTIDE1{[ac].R.R.R.R.C.P.L.Y.I.T.Y.D.P.V.C.R.R.R.R.[am]}$PEPTIDE1,PEPTIDE1,6:R3-16:R3$$$V2.0
SMILES: CC[C@H](C)[C@@H]1NC(=O)[C@H](Cc2ccc(O)cc2)NC(=O)[C@H](CC(C)C)NC(=O)[C@@H]2CCCN2C(=O)[C@@H](NC(=O)[C@H](CCCNC(=N)N)NC(=O)[C@H](CCCNC(=N)N)NC(=O)[C@H](CCCNC(=N)N)NC(=O)[C@H](CCCNC(=N)N)NC(C)=O)CSSC[C@@H](C(=O)N[C@@H](CCCNC(=N)N)C(=O)N[C@@H](CCCNC(=N)N)C(=O)N[C@@H](CCCNC(=N)N)C(=O)N[C@@H](CCCNC(=N)N)C(N)=O)NC(=O)[C@H](C(C)C)NC(=O)[C@@H]2CCCN2C(=O)[C@H](CC(=O)O)NC(=O)[C@H](Cc2ccc(O)cc2)NC(=O)[C@H]([C@@H](C)O)NC1=O
Binding intensity (fold vs KRpep-2d) [13]: 0.9 fold

B3: 2d-14-Trp (peptide)
peptide: RRRRCPLYISYDPWCRRRR
HELM: PEPTIDE1{[ac].R.R.R.R.C.P.L.Y.I.S.Y.D.P.W.C.R.R.R.R.[am]}$PEPTIDE1,PEPTIDE1,6:R3-16:R3$$$V2.0
SMILES: CC[C@H](C)[C@@H]1NC(=O)[C@H](Cc2ccc(O)cc2)NC(=O)[C@H](CC(C)C)NC(=O)[C@@H]2CCCN2C(=O)[C@@H](NC(=O)[C@H](CCCNC(=N)N)NC(=O)[C@H](CCCNC(=N)N)NC(=O)[C@H](CCCNC(=N)N)NC(=O)[C@H](CCCNC(=N)N)NC(C)=O)CSSC[C@@H](C(=O)N[C@@H](CCCNC(=N)N)C(=O)N[C@@H](CCCNC(=N)N)C(=O)N[C@@H](CCCNC(=N)N)C(=O)N[C@@H](CCCNC(=N)N)C(N)=O)NC(=O)[C@H](Cc2c[nH]c3ccccc23)NC(=O)[C@@H]2CCCN2C(=O)[C@H](CC(=O)O)NC(=O)[C@H](Cc2ccc(O)cc2)NC(=O)[C@H](CO)NC1=O
Binding intensity (fold vs KRpep-2d) [13]: 3.4 fold
